Legend:
Conditions in all cases: treatment time: 24 h
U2OS-mOrange2-Peroxisome = assay: cell count relative to DMSO control (panel B, lysosome/peroxisome/lipid stain) (fraction of control); higher = more cells (less toxicity)
Description: (§1)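 U2OS-derived cells in 384-well plates were treated for 24 h with a 7-point 2-fold dilution series (top dose 20 µM for most compounds; final max DMSO 1%), then fixed, stained in four marker panels and imaged on a Cellomics ArrayScan. Cell count per treatment (three replicate plates merged) is given as a fraction of DMSO control. Panel A used parental U2OS, panel B U2OS-mOrange2-Peroxisome, panel C1 U2OS-LMNB1-TUBA1B-ACTB (DRAQ5 nuclei).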

U2OS-LMNB1-TUBA1B-ACTB = assay: cell count relative to DMSO control (panel C1, DRAQ5/ER stain) (fraction of control); higher = more cells (less toxicity)
Description: as §1

U2OS = assay: cell count relative to DMSO control (panel A, nuclei/RNA/PMG/mitochondria stain) (fraction of control); higher = more cells (less toxicity)
Description: as §1

For CN(C)[C@@H]1C(O)=C(C(N)=O)C(=O)[C@@]2(O)C(O)=C3C(=O)c4c(O)ccc(Cl)c4[C@@](C)(O)[C@H]3C[C@@H]12 [chlortetracycline], the cell count (U2OS-mOrange2-Peroxisome; 0.3125 µM) was 0.886, the cell count (U2OS-mOrange2-Peroxisome; 0.625 µM) was 0.771 and the cell count (U2OS-mOrange2-Peroxisome; 1.25 µM) was 0.779. It also gave a cell count (U2OS-mOrange2-Peroxisome; 2.5 µM) of 0.944, a cell count (U2OS-mOrange2-Peroxisome; 5 µM) of 1.01 and a cell count (U2OS-mOrange2-Peroxisome; 10 µM) of 0.62. For the same compound, the cell count (U2OS-mOrange2-Peroxisome; 20 µM) was 0.486, the cell count (U2OS-LMNB1-TUBA1B-ACTB; 0.3125 µM) was 1.15 and the cell count (U2OS-LMNB1-TUBA1B-ACTB; 0.625 µM) was 1.12. For the same compound, the cell count (U2OS-LMNB1-TUBA1B-ACTB; 1.25 µM) was 1.1, the cell count (U2OS-LMNB1-TUBA1B-ACTB; 2.5 µM) was 0.983 and the cell count (U2OS-LMNB1-TUBA1B-ACTB; 5 µM) was 0.989. The cell count (U2OS-LMNB1-TUBA1B-ACTB; 10 µM) was 1.07, the cell count (U2OS-LMNB1-TUBA1B-ACTB; 20 µM) was 0.897 and the cell count (U2OS; 0.3125 µM) was 1.12. For the same compound, the cell count (U2OS; 0.625 µM) was 1.07, the cell count (U2OS; 1.25 µM) was 1.08 and the cell count (U2OS; 2.5 µM) was 1.06. It also gave a cell count (U2OS; 5 µM) of 1.02, a cell count (U2OS; 10 µM) of 0.933 and a cell count (U2OS; 20 µM) of 0.783.
COc1cc([C@@H]2c3cc4c(cc3[C@H](O)[C@H]3COC(=O)[C@@H]23)OCO4)cc(OC)c1OC [picropodophyllin] was tested, and the cell count (U2OS-mOrange2-Peroxisome; 0.15625 µM) was 0.97, the cell count (U2OS-mOrange2-Peroxisome; 0.3125 µM) was 0.803 and the cell count (U2OS-mOrange2-Peroxisome; 0.625 µM) was 1.07. The cell count (U2OS-mOrange2-Peroxisome; 1.25 µM) was 0.951, the cell count (U2OS-mOrange2-Peroxisome; 2.5 µM) was 1.42 and the cell count (U2OS-mOrange2-Peroxisome; 5 µM) was 1.24. For the same compound, the cell count (U2OS-mOrange2-Peroxisome; 10 µM) was 1.15, the cell count (U2OS-LMNB1-TUBA1B-ACTB; 0.15625 µM) was 0.924 and the cell count (U2OS-LMNB1-TUBA1B-ACTB; 0.3125 µM) was 0.954. It also gave a cell count (U2OS-LMNB1-TUBA1B-ACTB; 0.625 µM) of 1.04, a cell count (U2OS-LMNB1-TUBA1B-ACTB; 1.25 µM) of 1.03 and a cell count (U2OS-LMNB1-TUBA1B-ACTB; 2.5 µM) of 1.02. For the same compound, the cell count (U2OS-LMNB1-TUBA1B-ACTB; 5 µM) was 0.926, the cell count (U2OS-LMNB1-TUBA1B-ACTB; 10 µM) was 0.738 and the cell count (U2OS; 0.15625 µM) was 0.97. For the same compound, the cell count (U2OS; 0.3125 µM) was 0.88, the cell count (U2OS; 0.625 µM) was 0.899 and the cell count (U2OS; 1.25 µM) was 0.978. It also gave a cell count (U2OS; 2.5 µM) of 0.94, a cell count (U2OS; 5 µM) of 0.929 and a cell count (U2OS; 10 µM) of 0.701.
In the case of COc1cc(NS(C)(=O)=O)ccc1Nc1c2ccccc2nc2ccccc12 [amsacrine], the cell count (U2OS-mOrange2-Peroxisome; 0.3125 µM) is reported as 0.619, the cell count (U2OS-mOrange2-Peroxisome; 0.625 µM) is reported as 0.639 and the cell count (U2OS-mOrange2-Peroxisome; 1.25 µM) is reported as 0.486. It also gave a cell count (U2OS-mOrange2-Peroxisome; 2.5 µM) of 0.428, a cell count (U2OS-mOrange2-Peroxisome; 5 µM) of 0.312 and a cell count (U2OS-mOrange2-Peroxisome; 10 µM) of 0.203. For the same compound, the cell count (U2OS-mOrange2-Peroxisome; 20 µM) was 0.142, the cell count (U2OS-LMNB1-TUBA1B-ACTB; 0.3125 µM) was 0.954 and the cell count (U2OS-LMNB1-TUBA1B-ACTB; 0.625 µM) was 0.858. It also gave a cell count (U2OS-LMNB1-TUBA1B-ACTB; 1.25 µM) of 0.513, a cell count (U2OS-LMNB1-TUBA1B-ACTB; 2.5 µM) of 0.448 and a cell count (U2OS-LMNB1-TUBA1B-ACTB; 5 µM) of 0.441. The cell count (U2OS-LMNB1-TUBA1B-ACTB; 10 µM) was 0.402, the cell count (U2OS-LMNB1-TUBA1B-ACTB; 20 µM) was 0.373 and the cell count (U2OS; 0.3125 µM) was 1.04. For the same compound, the cell count (U2OS; 0.625 µM) was 0.838, the cell count (U2OS; 1.25 µM) was 0.405 and the cell count (U2OS; 2.5 µM) was 0.402. The cell count (U2OS; 5 µM) was 0.322, the cell count (U2OS; 10 µM) was 0.359 and the cell count (U2OS; 20 µM) was 0.329.
N.N.[Cl][Pt][Cl] [cisplatin] was tested, and the cell count (U2OS-mOrange2-Peroxisome; 0.15625 µM) was 1.19, the cell count (U2OS-mOrange2-Peroxisome; 0.3125 µM) was 0.977 and the cell count (U2OS-mOrange2-Peroxisome; 0.625 µM) was 0.858. The cell count (U2OS-mOrange2-Peroxisome; 1.25 µM) was 0.908, the cell count (U2OS-mOrange2-Peroxisome; 2.5 µM) was 0.967 and the cell count (U2OS-mOrange2-Peroxisome; 5 µM) was 1.05. The cell count (U2OS-mOrange2-Peroxisome; 10 µM) was 0.956, the cell count (U2OS-LMNB1-TUBA1B-ACTB; 0.15625 µM) was 1.01 and the cell count (U2OS-LMNB1-TUBA1B-ACTB; 0.3125 µM) was 1.06. It also gave a cell count (U2OS-LMNB1-TUBA1B-ACTB; 0.625 µM) of 1.12, a cell count (U2OS-LMNB1-TUBA1B-ACTB; 1.25 µM) of 1.03 and a cell count (U2OS-LMNB1-TUBA1B-ACTB; 2.5 µM) of 0.956. The cell count (U2OS-LMNB1-TUBA1B-ACTB; 5 µM) was 0.991, the cell count (U2OS-LMNB1-TUBA1B-ACTB; 10 µM) was 1.01 and the cell count (U2OS; 0.15625 µM) was 1.07. The cell count (U2OS; 0.3125 µM) was 1.04, the cell count (U2OS; 0.625 µM) was 1.12 and the cell count (U2OS; 1.25 µM) was 1.03. The cell count (U2OS; 2.5 µM) was 1.02, the cell count (U2OS; 5 µM) was 1.02 and the cell count (U2OS; 10 µM) was 0.948.

— the supplement of paper PMC9780213
